Laboratory results: patent EP0144845A1, “Indolylacetic acid derivatives and preparations containing same for medical treatments” (GREEN CROSS CORPORATION, priority 1983, dated 1985)

How the values were obtained:
[1] = system: carrageenan- induced edema in rats; test: Anti-inflammatory action: carrageenan-induced leg edema in rats; type: in vivo, Wister male rats; conditions: 0.3 mg/kg by the tail venous route 1 hour after carrageenan, fat emulsions, leg volume vs physiological saline groups 3 hours after carrageenan
Experimental: Wister male rats were divided into groups of 6 rats each. 0.1 mℓ of a 1% solution of carrageenan in physiological saline was injected subcutaneously in the heel of a right hind leg for each rat to develop a leg edema. One hour after the injection of carrageenan, a drug to be tested was injected in a dosage of 0.3 mg/kg by the tail venous route. Thereafter the leg volume was measured with suitable time intervals.
The fat emulsions prepared in Preparation Examples 1 to 4 were tested. As a control drug, physiological saline was used.
The degree of the anti-inflammatory action was indicated as an inhibitory ratio in connection with the leg volume of physiological saline-administered groups 3 hours after the injection of carrageenan.

[2] = Solubility in soybean oil (crystal precipitation on standing); type: physicochemical; conditions: 200 mg dissolved in 1 mL soybean oil at 70°C, then standing at 25°C for 2 days and nights
Experimental: In order to examine the solubility of the above-obtained substance in soybean oil, 200 mg of the substance was dissolved in 1 m£ of soybean oil while heating at 70°C and, thereafter, the resulting solution was allowed to stand at 25°C for 2 days and nights.

SMILES: CCCCOC(=O)COC(=O)Cc1c(C)n(C(=O)c2ccc(Cl)cc2)c2ccc(OC)cc12 [Example 1, butoxycarbonylmethyl indomethacin ester]
- Anti-inflammatory Action Edema Inhibition Ratio (%) [1]: 60%

SMILES: CCCCCCOC(=O)COC(=O)Cc1c(C)n(C(=O)c2ccc(Cl)cc2)c2ccc(OC)cc12 [Example 2, Hexyloxycarbonylmethyl indomethacin ester]
- Anti-inflammatory Action Edema Inhibition Ratio (%) [1]: 62%

SMILES: COc1ccc2c(c1)c(CC(=O)OCOC(=O)C(C)(C)C)c(C)n2C(=O)c1ccc(Cl)cc1 [Example 3, Pivaloyloxymethyl indomethacin ester]
- Anti-inflammatory Action Edema Inhibition Ratio (%) [1]: 58%

SMILES: CCCCOC(=O)COC(=O)Cc1c(C)n(C(=O)c2ccc(F)cc2)c2ccc(OC)cc12 [Example 4, butoxycarbonylmethyl 1-(p-fluorobenzoyl)-5-methoxy-2-methylindole-3-acetate]
- solubility in soybean oil: precipitation of crystals [2]: Precipitation of crystals was not observed at all
- Anti-inflammatory Action Edema Inhibition Ratio (%) [1]: 68%
